Data: PMC2955292 (Chemistry & biology, 2010)
Values joined by “and” are separate entries in the source; they are usually repeats but may differ in a detail not shown here. Equal entries are not always repeated. “Also recorded” adds a separate entry of the source. Positions of bridges follow the written chain, without caps; N, C: chain ends. Non-standard residues stand in square brackets, D forms with d. Residues, ends and D or L forms follow the SMILES beside them. *: point of attachment. Octatrienoyl(2E,4E,6E) = C/C=C/C=C/C=C/C(=O)*; Pro(4R-Me) = C[C@H]1CN[C@H](C(=O)O)C1; NMeA = CN[C@@H](C)C(=O)O

Key:
E. coli ClpP [1] = molecular target: T1, E. coli ClpP (Escherichia coli, UniProt P0A6G7); assay: biochemical
ClpP = conditions: in the presence of ADEP1; ref Brotz-Oesterhelt et al., 2005; cited from earlier work
[2] = system: interaction between ClpP and ClpA; assay: ClpP-ClpA interaction; format: binding, Escherichia coli; conditions: Figure S2
ClpP N-terminal loop = assay: Limited proteolysis of ClpP with Staphylococcus aureus protease V8; format: biochemical, Escherichia coli; conditions: presence vs absence of ADEP1; cleavage at Glu8 and Glu14; Figure S6
E. coli ClpP [3] = molecular target: T1, E. coli ClpP; conditions: Figure S1A, SDS-PAGE
E. coli ClpP [4] = molecular target: T1, E. coli ClpP; assay: Peptidase assay, oxidized insulin B chain; format: biochemical; conditions: 30-residue peptide; pH 8.0, 0.1 M KCl, 37 °C; Supplemental Table 1
E. coli ClpP [5] = molecular target: T1, E. coli ClpP; assay: Crystal structure of ClpP-ADEP1 complex; format: binding
ClpP tetradecamer = assay: Sedimentation velocity, oligomeric state of ClpP; set-up: species or system Escherichia coli
E. coli ClpP [6] = molecular target: T1, E. coli ClpP
ClpPin [7] = assay: Negative stain EM, translocation of β-casein into ClpPin; format: biochemical, Escherichia coli
ClpPin [8] = assay: Negative stain EM, translocation of EGFP-SsrA into ClpPin; format: biochemical, Escherichia coli; conditions: ADEP1 vs no compound, Figure S3B

T1 sequence (P0A6G7 15-207): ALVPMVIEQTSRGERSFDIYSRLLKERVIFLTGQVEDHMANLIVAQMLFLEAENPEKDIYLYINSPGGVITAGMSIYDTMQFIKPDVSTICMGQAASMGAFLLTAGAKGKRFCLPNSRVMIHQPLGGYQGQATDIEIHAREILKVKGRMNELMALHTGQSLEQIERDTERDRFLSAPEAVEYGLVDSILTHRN

For `C/C=C/C=C/C=C/C(=O)N[C@@H](Cc1ccccc1)C(=O)N[C@H]1COC(=O)[C@@H]2C[C@@H](C)CN2C(=O)[C@H](C)NC(=O)[C@H](C)N(C)C(=O)[C@@H]2CCCN2C1=O` [ADEP1] ({Octatrienoyl(2E,4E,6E)}-FSP[NMeA]A[Pro(4R-Me)]; ester 2-C; N-terminus assumed), the EC50 (E. coli ClpP [1]) is given as 0.37 µM, the “degradation of EGFP-SsrA by ClpP” value (ClpP) is given as “not degraded” and the “interaction between ClpP and ClpA” value [2] is given as “blocked interaction between ClpP and ClpA”. The “limited proteolysis of ClpP by V8 protease” value (ClpP N-terminal loop) was “significantly slower”, the “degradation of β-casein compared with ClpA and ATP” value (E. coli ClpP [3]; 37 °C) was “comparable to that observed when ClpA and ATP were present” and the “pattern of β-casein degradation products (processivity)” value (E. coli ClpP [3]) was “generated numerous partially degraded products”. The “cleavage of oxidized insulin β chain” value (E. coli ClpP [4]) was “activated cleavage”, the “conformation of N-terminal loops on ADEP1 binding” value (E. coli ClpP [5]) was “locks the N-terminal loops in an open β-hairpin conformation” and the “rigid-body movement of ClpP monomer on ADEP1 binding” value (E. coli ClpP [5]) was 1.5-2 Å. For the same molecule, the “widening of interface between adjacent ClpP monomers” value (E. coli ClpP [5]) was “about 1 Å”, the “axial pore diameter of ClpP bound to ADEP1” value (E. coli ClpP [5]; 1.9 Å, PDB 3MT6, apo 12 Å or less) was ~ 20 Å and 20 Å and the “binding site and contacts of ADEP1 on ClpP” value (E. coli ClpP [5]; Figure 5B) was “binds in the hydrophobic groove that serves as the primary docking site for ClpP ATPases; also recorded: binds to a hydrophobic pocket on the outer edge of the apical surface of ClpP; also recorded: Tyr62 forms hydrogen bonds with both the phenylalanine and the alanine moieties of the compound; also recorded: the phenylalanine, β-methylproline and alanine moieties, as well as the aliphatic tail in ADEP1 are critical for binding, while the N-methylalanine and proline moieties have minimal interactions with the protein”. For the same molecule, the “stoichiometry of ADEP1 binding” value (E. coli ClpP [5]; heptameric ring) was “one molecule of ADEP1 to each one of the seven hydrophobic clefts in the heptameric ring”, the “effect on ClpP tetradecamer formation” value (ClpP tetradecamer) was “enhances rather than disrupts tetradecamer formation” and the “activation of F-V cleavage compared with ClpA” value (E. coli ClpP [6]; F-V 1 mM, ClpP 1 μg/ml, 10 μM ADEP1 vs ClpA 10 μg/ml with 1 mM ATPγS, 37 °C, pH 8.0) was “comparable to the allosteric activation seen with ClpA”. For the same molecule, the “activity of ClpP alone relative to activity with ADEP1 present” value (E. coli ClpP [6]; F-V cleavage, 10 μM ADEP1, average of two separate experiments) was ~ 2%, the “stain penetration into ClpPin without β-casein” value (ClpPin [7]; ADEP1 alone, absence of β-casein, data not shown) was “did not prevent stain penetration into the ClpPin chamber” and the “shift of particle intensity distribution, β-casein translocation” value (ClpPin [7]; ClpPin, ADEP1 vs no compound, Figure S3A) was “significant shift of particles to higher intensity values”. For the same molecule, the “shift of particle intensity distribution, EGFP-SsrA” value (ClpPin [8]) was “no significant differences”.
